Data: patent US9370185B2, “Herbicidal composition” (ISHIHARA SANGYO KAISHA, LTD., priority 2011, dated 2016)

What was measured:
Assay type in all cases: in vivo
[1] = test system: crabgrass (Digitaria sanguinalis (L.) Scop.); test: Test Example 2: foliar treatment of crabgrass, visual growth inhibition; conditions: foliar treatment at 4.0 to 4.5 leaf stage, 21st day after treatment, read-out: Growth Inhibition Rate of Crabgrass (%) Measured Value
Method: (§1) Growth inhibition rate (%)=weed control rate of from 0% (equivalent to the non-treated plot) to 100% (complete kill)
Upland field soil was put into a 1/1,000,000-ha pot, and seeds of crabgrass (Digitaria sanguinalis (L.) Scop.) were sown. When the crabgrass reached the 4.0 to 4.5 leaf stage, prescribed amounts of SHIBAGEN DF (trade name) and a wettable powder containing pyroxasulfone as an active ingredient were diluted with water (corresponding to 1,000 L/ha) containing 0.05% by volume of KUSARINOH (trade name) and applied for foliar treatment by a small sprayer.
On the 21st day after the treatment, the state of growth of the crabgrass was visually observed and examined.

[2] = test system: velvetleaf (Abutilon theophrasti Medic.); test: Test Example 3: soil treatment, velvetleaf, visual growth inhibition; conditions: 24 h, soil treatment one day after sowing, 21st day after treatment, read-out: Growth Inhibition Rate of Velvetleaf (%) Measured Value
Method: as §1
(§2) Upland field soil was put into a 1/1,000,000-ha pot, and seeds of velvetleaf (Abutilon theophrasti Medic.) were sown. After one day, prescribed amounts of SHIBAGEN DF (trade name) and a wettable powder containing pyroxasulfone as an active ingredient were diluted with water (corresponding to 1,000 L/ha) and applied for soil treatment by a small sprayer.
On the 21st day after the treatment, the state of growth of the velvetleaf was visually observed and examined.

[3] = test system: black nightshade (Solanum nigrum L.); test: Test Example 5: soil treatment, black nightshade, visual growth inhibition; conditions: 24 h, soil treatment one day after sowing, 14th day after treatment, read-out: Growth Inhibition Rate of Black nightshade (%) Measured Value
Method: as §1
as §2, with “1/300,000-ha” for “1/1,000,000-ha”, “black nightshade (Solanum nigrum L.)” for “velvetleaf (Abutilon theophrasti Medic.)”
On the 14th day after the treatment, the state of growth of the black nightshade was visually observed and examined.

[4] = test system: black nightshade (Solanum nigrum L.); test: Test Example 1: foliar treatment of black nightshade, visual growth inhibition; conditions: foliar treatment at 2.3 to 2.5 leaf stage, 21st day after treatment, read-out: Growth Inhibition Rate of Black nightshade (%) Measured Value
Method: Upland field soil was put into a 1/1,000,000-ha pot, and seeds of black nightshade (Solanum nigrum L.) were sown. When the black nightshade reached the 2.3 to 2.5 leaf stage, prescribed amounts of a water dispersible granules containing flazasulfuron as an active ingredient (trade name: SHIBAGEN DF, manufactured by Ishihara Sangyo Kaisha, Ltd.) and a wettable powder containing pyroxasulfone as an active ingredient were diluted with water (corresponding to 1,000 L/ha) containing 0.05% by volume of an agricultural adjuvant (trade name: KUSARINOH, manufactured by NIHON NOHYAKU Co., Ltd.) and applied for foliar treatment by a small sprayer.
On the 21st day after the treatment, the state of growth of the black nightshade was visually observed and examined, followed by evaluation according to the following evaluation criteria. A growth inhibition rate (%) (measured value) and a growth inhibition rate (%) (calculated value) as calculated according to the foregoing Colby's method are shown in Table 1.
as §1

[5] = test system: wild oat (Avena fatua L.); test: Test Example 6: soil treatment, wild oat, visual growth inhibition; conditions: 24 h, soil treatment one day after sowing, 28th day after treatment, read-out: Growth Inhibition Rate of Wild oat (%) Measured Value
Method: as §1
as §2, with “1/300,000-ha” for “1/1,000,000-ha”, “wild oat (Avena fatua L.)” for “velvetleaf (Abutilon theophrasti Medic.)”
On the 28th day after the treatment, the state of growth of the wild oat was visually observed and examined.

[6] = test system: velvetleaf (Abutilon theophrasti Medic.); test: Test Example 7: soil treatment, velvetleaf, visual growth inhibition; conditions: 24 h, soil treatment one day after sowing, 28th day after treatment, read-out: Growth Inhibition Rate of Velvetleaf (%) Measured Value
Method: as §1
as §2, with “1/300,000-ha” for “1/1,000,000-ha”, “an oil-based suspension” for “SHIBAGEN DF”, “name: ONEHOPE NYUZAI, manufactured by Ishihara Sangyo Kaisha, Ltd.) containing nicosulfuron as an active ingredient” for “name)”
On the 28th day after the treatment, the state of growth of the velvetleaf was visually observed and examined.

[7] = test system: common lambsquarters (Chenopodium album L.); test: Test Example 4: soil treatment, common lambsquarters, visual growth inhibition; conditions: 24 h, soil treatment one day after sowing, 27th day after treatment, read-out: Growth Inhibition Rate of Common lambsquarters (%) Measured Value
Method: as §1
Upland field soil was put into a 1/1,000,000-ha pot, and seeds of common lambsquarters (Chenopodium album L.) were sown. After one day, prescribed amounts of a water-based suspension containing nicosulfuron as an active ingredient and a wettable powder containing pyroxasulfone as an active ingredient were diluted with water (corresponding to 300 L/ha) and applied for soil treatment by a small sprayer.
On the 27th day after the treatment, the state of growth of the common lambsquarters was visually observed and examined.

| Structure (SMILES) | inhibition at 50 g/ha ([1]; dose 50 g/ha) [%] | inhibition at 50 g/ha ([2]; dose 50 g/ha) [%] | inhibition at 25 g/ha ([3]; dose 25 g/ha) [%] | inhibition at 50 g/ha [3] [%] | inhibition at 100 g/ha ([3]; dose 100 g/ha) [%] | inhibition at 12.5 g/ha ([4]; dose 12.5 g/ha) [%] | inhibition at 100 g/ha ([5]; dose 100 g/ha) [%] | inhibition at 20 g/ha ([6]; dose 20 g/ha) [%] | inhibition at 100 g/ha [6] [%] | inhibition at 30 g/ha ([7]; dose 30 g/ha) [%] | inhibition at 25 g/ha ([1]; dose 25 g/ha) [%] | inhibition at 200 g/ha ([1]; dose 200 g/ha) [%] | inhibition at 12.5 g/ha ([2]; dose 12.5 g/ha) [%] | inhibition at 150 g/ha ([3]; dose 150 g/ha) [%] | inhibition at 300 g/ha ([3]; dose 300 g/ha) [%] | inhibition at 25 g/ha ([4]; dose 25 g/ha) [%] | inhibition at 50 g/ha ([6]; dose 50 g/ha) [%] | inhibition at 300 g/ha ([6]; dose 300 g/ha) [%] | inhibition at 12.5 g/ha ([5]; dose 12.5 g/ha) [%] | inhibition at 125 g/ha ([7]; dose 125 g/ha) [%] |
| --- | --- | --- | --- | --- | --- | --- | --- | --- | --- | --- | --- | --- | --- | --- | --- | --- | --- | --- | --- | --- |
| COc1cc(OC)nc(NC(=O)NS(=O)(=O)c2ncccc2C(F)(F)F)n1 [flazasulfuron, 1-(4,6-dimethoxypyrimidin-2-yl)-3-(3-trilfuoromethyl-2-pyridylsulfony)urea] | 70 | 94 | 50 | 60 | 80 | 33 | 85 | – | – | – | – | – | – | – | – | – | – | – | – | – |
| COc1cc(OC)nc(NC(=O)NS(=O)(=O)c2ncccc2C(=O)N(C)C)n1 [nicosulfuron, 2-(4,6-dimethoxypyrimidin-2-ylcarbamoylsulfamoyl)-N,N-dimethylnicotinamide] | – | – | – | – | – | – | – | 0 | 10 | 35 | – | – | – | – | – | – | – | – | – | – |
| Cn1nc(C(F)(F)F)c(CS(=O)(=O)C2=NOC(C)(C)C2)c1OC(F)F [pyroxasulfone, 3-[5-(difluoromethoxy)-1-methyl-3-(trifluoromethyl)pyrazol-4-ylmethylsulfonyl]-4,5-dihydro-5,5-dimethyl-1,2-oxazole] | – | – | – | 20 | – | – | – | – | 70 | – | 0 | 40 | 13 | 30 | 30 | 20 | 40 | 80 | 0 | 90 |
